Experimental data published in patent publication US20110151089A1, “COMPOSITION CONTAINING MAGNESIUM GLUTAMATE WHICH CAN ENHANCE THE SALTINESS OF FOODS AND DRINKS” (priority 2008, published 2011).

Assay: Sensory evaluation test of miso sample solutions without broth, experts' panel of six adult persons (Example 2)
Parameters: species or system human
Settings: converted sodium chloride concentration about 0.625%, scale with 7 gradations, from 0 to 7
Description: A scale with 7 gradations, from 0 to 7, was used to evaluate the “strength of saltiness” and “overall strength of miso soup flavor”.

N[C@@H](CCC(=O)[O-])C(=O)[O-].[Mg+2] [MDG, magnesium glutamate]
Strength of saltiness: improved
